Experiment [1] concerns the target T1, cannabinoid peripheral type (CB2) receptor (Rattus norvegicus, UniProt Q9QZN9).
T1 construct: rat cerebellar membrane fraction and spleen cells were respectively used; from tissue; host or cells: rat spleen cells (male SD rats, 7-9 weeks old)
T1 sequence (Q9QZN9 1-360): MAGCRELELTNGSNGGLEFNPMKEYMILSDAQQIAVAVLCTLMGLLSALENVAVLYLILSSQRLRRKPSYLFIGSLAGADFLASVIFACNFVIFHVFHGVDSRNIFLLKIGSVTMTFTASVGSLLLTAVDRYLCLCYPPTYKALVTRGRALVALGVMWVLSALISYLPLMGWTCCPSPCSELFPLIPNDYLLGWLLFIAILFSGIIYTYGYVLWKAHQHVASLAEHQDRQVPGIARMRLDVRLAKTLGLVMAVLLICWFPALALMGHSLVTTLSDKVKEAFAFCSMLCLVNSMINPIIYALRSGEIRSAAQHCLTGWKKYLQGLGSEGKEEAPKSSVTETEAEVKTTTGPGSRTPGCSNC
The experiment in a line: Binding assay, cannabinoid peripheral type receptor (CB2), rat spleen cells, [3H]Win55212-2. To be noted: for C/S: ratio of Ki central receptor (C) to Ki peripheral receptor (S); for Ki: rat spleen cells, [3H]Win55212-2 2 nM, 4° C. 360 min, read-out: Ki value, Peripheral receptor (S). How it is done: (§1) [I] Binding Assay (in vitro)
(§2) As the sample rich in cannabinoid central type (CB1) and peripheral type (CB2) receptors, rat cerebellar membrane fraction and spleen cells were respectively used (male SD rats, 7-9 weeks old). A sample (cerebellar membrane fraction: 50 μg/ml or spleen cells: 1×10^7 cells/ml), labeled ligand ([^3 H]Win55212-2, 2 nM) and unlabeled Win55212-2 or a test compound were plated in round bottom 24 well plates, and incubated at 30° C. for 90 min in the case of cerebellar membrane fraction, and at 4° C. for 360 min in the case of spleen cells. As the assay buffer, 50 mM Tris solution containing 0.2% BSA was used for cerebellar membrane fraction, and 50 mM Tris-HBSS containing 0.2% BSA was used for spleen cells. After incubation, the samples were filtrated through a filter (Packard, Unifilter 24 GF/B) and dried. A scintillation solution (Packard, Microsint-20) was added, and the radioactivity of the samples was determined (Packard, Top count A9912V). The non-specific binding was determined by adding an excess Win55212-2 (1 μM), and specific binding was calculated by subtracting non-specific binding from the total binding obtained by adding the labeled ligand alone. The test compounds were dissolved in DMSO to the final concentration of DMSO of 0.1%. IC50 was determined from the proportion of the specifically-bound test compounds, and the Ki value of the test compounds was calculated from IC50 and Kd value of [^3 H]Win55212-2.

Experiment [2] concerns Sheep red blood cell-induced delayed type hypersensitivity. As to the kind of experiment: Sheep red blood cell (SRBC)-induced delayed type hypersensitivity (DTH) model. The class given is in vivo, female ddy mice. As to conditions: Mus musculus, Erythrocyte; po, mice, 1 h before SRBC challenge; paw volume 24 h after induction. The protocol: [III] Sheep red blood cell (SRBC)-induced delayed type hypersensitivity (DTH) model (in vivo)
Female ddy mice (6-8 weeks old) were used. On day 1, SRBC 10^7 cells were intradermally injected into the left foot pad of the mice (40 μl/foot) to immunize the mice. Five days later, the test compounds dissolved in olive oil were orally administered at 10 ml/kg. One hour later, SRBC 10^8 cells were intradermally injected into the right foot pad to induce the response. Twenty-four hours after the induction, the volume of the both paws was measured, and edema ratio was calculated by […].
(§3) In both [II] and [III], the test compounds were dissolved in DMSO and used upon dilution with olive oil (final concentration of DMSO 1%).

For experiment [3], the target named is T2, cannabinoid central type (CB1) receptor (Rattus norvegicus, UniProt P20272).
T2 construct: rat cerebellar membrane fraction and spleen cells were respectively used; from tissue; host or cells: rat cerebellar membrane fraction (male SD rats, 7-9 weeks old)
The experiment in a line: Binding assay, cannabinoid central type receptor (CB1), rat cerebellar membrane fraction, [3H]Win55212-2. The protocol: as §1, §2

Experiment [4] has as its system Carageenan-induced paw edema. As to the kind of experiment: Carageenan-induced paw edema model. To be noted: Mus musculus; po, mice, 1 h before carageenan; paw volume 3 h later. The class given is in vivo, female ddy mice. The protocol:
[II] Carageenan-induced paw edema model (in vivo)
Female ddy mice (6-8 weeks old) were used. […] One hour after the administration, 50 μL of 1% carageenan dissolved in physiological saline was intradermally injected into the right foot pad. Three hours later, the volume of the right paw was measured and compared with that measured before the carageenan injection.
as §3

The mark [5] stands for this setting: rat cerebellar membrane fraction, [3H]Win55212-2 2 nM, 30° C. 90 min, read-out: Ki value, Central receptor (C).

The structures appear in SMILES notation. Read-outs that look alike come from different tables or passages of the source.

T2 sequence (P20272 whole entry): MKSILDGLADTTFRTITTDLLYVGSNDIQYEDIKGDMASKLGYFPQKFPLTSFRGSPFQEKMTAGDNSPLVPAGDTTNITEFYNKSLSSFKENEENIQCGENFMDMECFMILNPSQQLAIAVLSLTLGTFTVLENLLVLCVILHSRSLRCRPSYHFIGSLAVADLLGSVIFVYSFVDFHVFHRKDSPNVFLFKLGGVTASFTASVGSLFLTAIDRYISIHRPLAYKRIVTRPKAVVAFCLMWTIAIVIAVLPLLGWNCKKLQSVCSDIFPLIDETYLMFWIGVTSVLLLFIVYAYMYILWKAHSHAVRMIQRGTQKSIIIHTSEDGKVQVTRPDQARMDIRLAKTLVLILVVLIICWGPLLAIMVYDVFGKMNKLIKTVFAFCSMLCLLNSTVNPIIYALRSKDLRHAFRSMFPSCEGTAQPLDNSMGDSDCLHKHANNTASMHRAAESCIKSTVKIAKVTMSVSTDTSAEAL

Turning to `CCCCCOc1cc(/C=C/C(=O)NCCc2ccc(O)cc2)ccc1OC` [Example 1-1], the C/S in experiment [1] is given as 48. Further, the ED50 in experiment [2] came out at 1.52 mg/kg; in experiment [4], 1 mg/kg. Besides, the Ki in experiment [3] worked out at 0.23 µM.

Take `CCCCCOc1cc(/C=C/C(=O)NCCc2ccc(O)cc2)ccc1OCC` [Example 1-2]: the Ki in experiment [1] is 0.0018 µM; in experiment [3], 0.4 µM. Besides, the C/S in experiment [1] is 222. Also, the 50% effective dose (ED50) was 0.48 mg/kg in experiment [2] and above 1 mg/kg in experiment [4].

Turning to `CCCCOc1cc(/C=C/C(=O)NCCc2ccc(O)cc2)ccc1OC` [Example 1-4], the Ki in experiment [1] came out at 0.0077 µM; in experiment [3], 0.96 µM. In addition, the C/S in experiment [1] was 125. Also, the median effective dose (ED50) in experiment [2] came out at 0.71 mg/kg; in experiment [4] it was 0.55 mg/kg.

In the case of `CCCCCOc1cc(/C=C/C(=O)N[C@@H](Cc2ccc(O)cc2)C(=O)OC)ccc1OC` [Example 1-22], the Ki in experiment [1] was determined as 0.0014 µM; in experiment [3], 0.48 µM. Also, the C/S in experiment [1] was 343. In addition, the ED50 in experiment [2] turned out to be 0.77 mg/kg; in experiment [4], 0.14 mg/kg.

In the case of `CCCCCSc1cc(/C=C/C(=O)NCCc2ccc(O)cc2)ccc1OC` [Example 1-34, N-[2-(4-hydroxyphenyl)ethyl]-3-(4-methoxy-3-pentylthiophenyl)acrylamide], the C/S in experiment [1] was found to be 845. The ED50 in experiment [2] came to 1.95 mg/kg; in experiment [4], 0.59 mg/kg. In experiment [3], this compound displayed a Ki of 0.93 µM.

Consider `CCCCCNc1cc(/C=C/C(=O)NCCc2ccc(N)cc2)ccc1OC` [Example 1-35, N-[2-(4-aminophenyl)ethy]-3-(4methoxy-3-pentylaminophenyl)-acrylamide], for which the Ki in experiment [1] came out at 0.01 µM; in experiment [3], 0.16 µM. The C/S in experiment [1] was 16. Besides, the ED50 in experiment [2] worked out at 0.063 mg/kg; in experiment [4] it was 0.12 mg/kg.

In the case of `CCCCCOc1cc(C(=O)NCCc2ccc(O)cc2)ccc1OC` [Example 2-1, N-[2-(4-hydroxyphenyl)ethyl]-(4-methoxy-3-pentyloxy)benzamide], in experiment [1], the C/S is reported as 560. The values for the ED50 in experiment [2] and in experiment [4] were 0.14 mg/kg and 0.04 mg/kg, respectively. For the same compound, in experiment [3] (setting [5]), the Ki turned out to be 1.4 µM.

For `CCCCCOc1cc(C(=O)NCCc2ccc(O)cc2)ccc1OCC` [Example 2-2], the Ki in experiment [1] stood at 0.0011 µM; in experiment [3], 1.1 µM. Moreover, the C/S in experiment [1] is on record as 1000. The results for the ED50 in experiment [2] and in experiment [4] were 0.9 mg/kg and 0.51 mg/kg, respectively.

Consider `CCCCCOc1ccc(C(=O)NCCc2ccc(O)cc2)cc1OCCCCC` [Example 2-3], for which, in experiment [1], the C/S was above 8250. The ED50 amounted to 0.053 mg/kg in experiment [2] and 0.17 mg/kg in experiment [4]. The same compound showed an inhibitory constant (Ki) in experiment [3] above 3.3 µM.

Take `CCCCCNc1cc(C(=O)NCCc2ccc(O)cc2)ccc1OC` [Example 2-6]: the inhibition constant (Ki) in experiment [1] worked out at 0.0011 µM; in experiment [3] (read-out: Ki value, Central receptor (C), rat cerebellar membrane fraction, [3H]Win55212-2 2 nM, 30° C. 90 min) it was 0.5 µM. In addition, in experiment [1], the C/S worked out at 455. For the same compound, the ED50 was 0.72 mg/kg in experiment [2] and 0.3 mg/kg in experiment [4].

For `CCCCOc1cc(C(=O)NCCc2ccc(O)cc2)ccc1OC` [Example 2-7], the results for the Ki in experiment [1] and in experiment [3] were 0.0095 µM and above 2.5 µM, respectively. Moreover, the C/S in experiment [1] came out at 263. Besides, the ED50 in experiment [2] stood at 2.35 mg/kg; in experiment [4], 2.28 mg/kg.

On to `CCCCCCOc1cc(C(=O)NCCc2ccc(O)cc2)ccc1OC` [Example 2-8], for which the results for the Ki in experiment [1] and in experiment [3] were 0.0037 µM and 1 µM, respectively. In addition, in experiment [1], the C/S is listed as 270. Also, the ED50 in experiment [2] is 1.45 mg/kg; in experiment [4], 0.73 mg/kg.

For the compound `CCCCCOc1cc(C(=O)NCCc2cccc(O)c2)ccc1OC` [Example 2-13], the Ki was 0.0066 µM in experiment [1] and 5.6 µM in experiment [3]. In experiment [1], the C/S came to 849. The figures for the ED50 in experiment [2] and in experiment [4] were 5.6 mg/kg and 3.2 mg/kg, respectively.

As to `CCCCCOc1cc(C(=O)NCCc2ccncc2)ccc1OC` [Example 2-16], the C/S in experiment [1] is listed as above 59. Further, the ED50 in experiment [2] is 1.95 mg/kg; in experiment [4] it was 1.1 mg/kg. In addition, the inhibition constant Ki in experiment [3] (setting [5]) was above 4.3 µM.

On to `CCCCCOc1cc(C(=O)NC2CCc3cc(O)c(O)cc3C2)ccc1OC` (centres unmarked) [Example 2-26], for which the C/S in experiment [1] was above 139. Also, the ED50 was 3.75 mg/kg in experiment [2] and above 10 mg/kg in experiment [4]. Besides, in experiment [3], the Ki was above 2.5 µM.

As for `CCCCCOc1ccc(C(=O)NCCc2ccc(N)cc2)cc1SCCCCC` [Example 2-52, N-[2-(4-aminophenyl)ethyl]4-pentyloxy-3-pentylthiobenzamide], in experiment [1], the C/S is listed as above 2300. Also, the values for the ED50 in experiment [2] and in experiment [4] were 0.58 mg/kg and 1.85 mg/kg, respectively. The compound also gave a Ki in experiment [3] above 4.3 µM.

As to `CCCCCOc1c(OC)ccc(C2=NC(C)(C)CO2)c1CO` [Example 6-4], the Ki in experiment [1] amounted to 0.011 µM; in experiment [3], 0.65 µM. Besides, the C/S in experiment [1] is listed as 59. In addition, the ED50 came out at 10 mg/kg in experiment [2] and 0.25 mg/kg in experiment [4].

Take `CCCCCOc1c(OC)ccc2c1C(=O)N(CCc1ccc(O)cc1)C2=O` [Example 7-4, 2-[2-(4-hydroxyphenyl)ethyl]-5-methoxy-4-pentyloxyisoindole-1,3-dione]: the C/S in experiment [1] stood at 137. Moreover, the ED50 in experiment [2] and in experiment [4] was 1.6 mg/kg in each case. Further, in experiment [3] (setting [5]), the Ki is 1 µM.

Turning to `CCCCCOc1c(OC)ccc2c1CN(CCc1ccc(O)cc1)C2=O` [Example 7-5, 2-[2-(4-hydroxyphenyl)ethyl]-5-methoxy-4-pentyloxy-2,3-dihydroisoindol-1-one], the C/S in experiment [1] is listed as above 227. Also, the ED50 in experiment [2] came out at 0.038 mg/kg; in experiment [4] it was 0.014 mg/kg. In experiment [3], this compound had a Ki above 2.5 µM.

Turning to `CCCCCOc1c(OC)ccc2c(=O)n(CCc3ccc(O)cc3)ccc12` [Example 7-19-1], the C/S in experiment [1] stood at 54. For the same compound, the values for the ED50 in experiment [2] and in experiment [4] were 0.033 mg/kg and 0.092 mg/kg, respectively. For the same compound, in experiment [3] (setting [5]), the Ki was determined as 0.2 µM.

`CCCCCOc1c(OC)ccc2c(=O)n(CCc3ccncc3)ccc12` [Example 7-20]: the C/S in experiment [1] was found to be 48. For the same compound, the ED50 amounted to 0.084 mg/kg in experiment [2] and 0.195 mg/kg in experiment [4]. The inhibition constant Ki in experiment [3] (setting [5]) amounted to 0.4 µM.

Consider `CCCCCOc1c(OC)ccc2c1CCN(CCc1ccc(O)cc1)C2=O` [Example 7-24, 2-[2-(4-hydroxyphenyl)ethyl]-6-methoxy-5-pentyloxy-3,4dihydro-2H-isoquinolin-1-one], for which the C/S in experiment [1] is recorded as above 1389. For the same compound, the ED50 was 0.027 mg/kg in experiment [2] and 0.028 mg/kg in experiment [4]. For the same compound, in experiment [3], the Ki is above 2.5 µM.

As to `CCCCCOc1ccc2c(c1OCCCCC)CN(CCc1ccc([N+](=O)[O-])cc1)C2=O` [Example 7-30, 4,5-dipentyloxy-2-[2-(4-nitrophenyl)ethyl]-2,3-dihydroisoindol-1-one], the inhibition constant (Ki) in experiment [1] came out at 0.0018 µM; in experiment [3], 2.6 µM. Further, in experiment [1], the C/S was determined as 1440. The results for the ED50 in experiment [2] and in experiment [4] were 0.021 mg/kg and below 0.01 mg/kg, respectively.

With `CCCCCOc1c(OC)ccc2c(=O)n(CCc3ccc(N)cc3)c(=O)[nH]c12` [Example 7-40, 3-[2-(4-aminophenyl)ethyl]-7-methoxy-8-pentyloxy-1H-quinazoline-2,4-dione], in experiment [1], the Ki was below 0.0037 µM and the C/S is listed as above 30. In experiment [3], this compound displayed a Ki of 0.109 µM. This compound showed an ED50 in experiment [4] of 0.016 mg/kg.

For the origin of these results see patent publication US6017919A, “Compounds and pharmaceutical use thereof” (Japan Tobacco Inc., priority 1996, dated 2000).
